Results: ChEMBL document CHEMBL1124193, “Synthesis and bacterial DNA gyrase inhibitory properties of a spirocyclopropylquinolone derivative” (J Med Chem, 1988)
≈ marks a conversion by molar mass, not a printed value.

Tests used:
Type in all cases: functional
Bacteroides fragilis = test: In vitro minimum inhibitory concentration against Bacteroides fragilis (ATCC 25285)
Mus musculus [1] = test: In vivo antibacterial activity against Escherichia coli (Vogel) in mice administered perorally; conditions: po, read-out: PD50
Pseudomonas aeruginosa = test: In vitro minimum inhibitory concentration against Pseudomonas aeruginosa (ATCC 27853)
Enterococcus faecalis = test: In vitro minimum inhibitory concentration against Streptococcus faecalis (ATCC 29212)
Mus musculus [2] = test: In vivo antibacterial activity against Escherichia coli (Vogel) in mice administered subcutaneously; conditions: sc, read-out: PD50
Staphylococcus aureus = test: In vitro minimum inhibitory concentration against Staphylococcus aureus (ATCC 29213)
Streptococcus pneumoniae = test: In vitro minimum inhibitory concentration against Streptococcus pneumoniae (ATCC 6301)
Escherichia coli = test: In vitro minimum inhibitory concentration against Escherichia coli (ATCC […]25922)

Work on `C[C@H]1COc2c(N3CCN(C)CC3)c(F)cc3c(=O)c(C(=O)O)cn1c23.C[C@H]1COc2c(N3CCN(C)CC3)c(F)cc3c(=O)c(C(=O)O)cn1c23.O` [LEVOFLOXACIN] yielded an MIC (Bacteroides fragilis) of 16 µg/mL, an ED50 (Mus musculus [1]) of 10.1 mg/kg and an MIC (Pseudomonas aeruginosa) of 32 µg/mL. The MIC (Enterococcus faecalis) was 16 µg/mL, the ED50 (Mus musculus [2]) was 3.8 mg/kg and the MIC (Staphylococcus aureus) was 2 µg/mL.
Compound `CC1COc2c(N3CCN(C)CC3)c(F)cc3c(=O)c(C(=O)O)cn1c23` (stereo unspecified) [OFLOXACIN] has an MIC (Bacteroides fragilis) of 0.5 µg/mL (≈ 1.38 µM), an ED50 (Mus musculus [1]) of 2.2 mg/kg and an MIC (Pseudomonas aeruginosa) of 0.5 µg/mL (≈ 1.38 µM). For the same compound, the MIC (Enterococcus faecalis) was 2 µg/mL (≈ 5.53 µM), the ED50 (Mus musculus [2]) was 1.2 mg/kg and the MIC (Staphylococcus aureus) was 0.25 µg/mL (≈ 0.692 µM).
In the case of `O=C(O)c1cn(C2CC2)c2cc(N3CCNCC3)c(F)cc2c1=O` [CIPROFLOXACIN], the MIC (Bacteroides fragilis) is reported as 2 µg/mL (≈ 6.04 µM), the ED50 (Mus musculus [1]) is reported as 0.86 mg/kg and the MIC (Enterococcus faecalis) is reported as 0.5 µg/mL (≈ 1.51 µM). The MIC (Streptococcus pneumoniae) was 0.25 µg/mL (≈ 0.754 µM), the ED50 (Mus musculus [2]) was 0.2 mg/kg and the MIC (Staphylococcus aureus) was 0.25 µg/mL (≈ 0.754 µM).
`CN1CCN(c2c(F)cc3c(=O)c(C(=O)O)cn4c3c2OCC42CC2)CC1` gave an MIC (Bacteroides fragilis) of 8 µg/mL (≈ 21.4 µM), an MIC (Escherichia coli) of 0.125 µg/mL (≈ 0.335 µM) and an ED50 (Mus musculus [1]) of 6.3 mg/kg. It also gave an MIC (Pseudomonas aeruginosa) of 4 µg/mL (≈ 10.7 µM), an MIC (Enterococcus faecalis) of 8 µg/mL (≈ 21.4 µM) and an MIC (Streptococcus pneumoniae) of 8 µg/mL (≈ 21.4 µM). For the same compound, the ED50 (Mus musculus [2]) was 1.9 mg/kg and the MIC (Staphylococcus aureus) was 2 µg/mL (≈ 5.36 µM).
